The record followed here is BindingDB's records for patent US11504368 (Thomas Helledays Stiftelse FÖr Medicinsk Forskning, 2022).

By IC50 is commonly meant the point on the concentration scale where inhibition reaches its midpoint.

The assay deals with T1, Bifunctional methylenetetrahydrofolate dehydrogenase/cyclohydrolase, mitochondrial (Homo sapiens, UniProt P13995).
T1 sequence (P13995 whole entry): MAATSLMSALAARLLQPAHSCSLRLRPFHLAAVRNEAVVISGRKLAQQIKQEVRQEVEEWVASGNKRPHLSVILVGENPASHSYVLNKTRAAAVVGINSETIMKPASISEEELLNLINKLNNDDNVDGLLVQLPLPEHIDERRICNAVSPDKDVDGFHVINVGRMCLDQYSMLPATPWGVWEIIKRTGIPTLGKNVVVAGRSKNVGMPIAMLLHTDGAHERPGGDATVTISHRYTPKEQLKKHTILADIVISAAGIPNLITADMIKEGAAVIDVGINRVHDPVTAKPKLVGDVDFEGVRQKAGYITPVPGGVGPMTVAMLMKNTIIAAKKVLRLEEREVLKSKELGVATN
The experiment in a line: Inhibition of MTHFD2. The procedure:
DMSO was used as negative control. The serial dilution in DMSO, from compound DMSO stock solution, was created by dispensing from a 384-well low dead volume microplate (LP-0200, Labcyte) and a 384-well polypropylene microplate 2.0 (PP-0200, Labcyte). A total of 2.5 μL MTHFD2 was preincubated with compound or DMSO for 10 min. The enzymatic reaction was initiated by adding 2.5 μL folitixorin (F680350, Toronto Research Chemicals). For background control, 5 μL buffer was added to the well. […] The final concentrations of all reagents in a total assay volume of 5 μL per well were 50 mmol/L Tris-HCl at pH 8.0, 100 mmol/L NaCl, 5 mmol/L MgCl2, 25 mmol/L Na3PO4 at pH 8.0, 0.005% (v/v) Tween-20, and 2 mmol/L 2-mercaptoethanol. After 15 min reaction time, 5 μL NAD(P)H-Glo detection reagent (G9061 or G9062, Promega) was dispensed in all wells and the plate was incubated for 60 min. Luminescence was measured on a plate reader (Envision, PerkinElmer or Sense, Hidex). The light signal produced is proportional to the amount of NAD(P)H in the sample.

On to `Nc1nc(N)c(NC(=O)Nc2ccc(C(=O)N[C@@H](CCc3ccccc3)C(=O)O)nc2)c(=O)[nH]1` [US11504368, Example 14], for which the half-inhibitory concentration (IC50) turned out to be 36 nM.
